From patent US5811442A, “Pharmaceutical compositions for the treatment of conditions associated with decreased blood flow” (priority 1997, dated 1998)
Like-named read-outs stand apart in the source and are kept apart here.

What was measured:
ganglionic receptors = assay: Determination of Interaction with Ganglia (maximal activation of ganglionic receptors); type: cell-based; details: percentage of the maximal activation induced by (S)-(-)-nicotine
Source text: Typical ganglionic receptors include α3β4 receptor subtypes, (i.e., non-β2 containing receptor subtypes).
Determination of Interaction with Ganglia
The ganglionic tissues employed are representative of those which are believed absent of receptor subtypes containing β2-subunits.

[1] = tested on: β2-containing nicotinic acetylcholine receptor subtypes; assay: Determination of Dopamine Release (synaptosomes); type: cell-based; details: for EC50: read-out: Dopamine Release EC50
Source text: Determination of Dopamine Release
Reported EC50 is expressed in nM and Emax represents the amount released relative to nicotine.

muscle receptors = biological target: T1, muscle receptors (Homo sapiens, UniProt P02708+P07510+Q07001); assay: cell-based; type: cell-based; details: for Muscle Effect (Emax): percentage of the maximal activation induced by (S)-(-)-nicotine; for Emax: read-out: Muscle Effect (Emax)
T1 construct: endogenous in cells
Source text: Determination of Interaction with Muscle
The muscle tissues employed are representative of those which are believed absent of receptor subtypes containing β2-subunits.

α4β2 receptor subtypes = biological target: T2, α4β2 receptor subtypes (Rattus norvegicus, UniProt P09483+P12390); assay: Determination of Binding to Relevant Receptor Sites; details: calculated from IC50 values using the method of Cheng et al.
T2 construct: from tissue
Source text: Receptor binding constants provide a measure of the ability of the compound to bind to relevant receptor sites of certain cells of the patient.
Determination of Binding to Relevant Receptor Sites

[2] = tested on: nicotinic acetylcholine receptor subtypes including β2-subunits; details: reported; cited from earlier work
[3] = read-out: Dopamine Release Emax
[4] = read-out: Dopamine Release Emax, percentage of release obtained with (S)-(-)-nicotine concentration resulting in maximal effects

T1 sequence (P02708 21-457): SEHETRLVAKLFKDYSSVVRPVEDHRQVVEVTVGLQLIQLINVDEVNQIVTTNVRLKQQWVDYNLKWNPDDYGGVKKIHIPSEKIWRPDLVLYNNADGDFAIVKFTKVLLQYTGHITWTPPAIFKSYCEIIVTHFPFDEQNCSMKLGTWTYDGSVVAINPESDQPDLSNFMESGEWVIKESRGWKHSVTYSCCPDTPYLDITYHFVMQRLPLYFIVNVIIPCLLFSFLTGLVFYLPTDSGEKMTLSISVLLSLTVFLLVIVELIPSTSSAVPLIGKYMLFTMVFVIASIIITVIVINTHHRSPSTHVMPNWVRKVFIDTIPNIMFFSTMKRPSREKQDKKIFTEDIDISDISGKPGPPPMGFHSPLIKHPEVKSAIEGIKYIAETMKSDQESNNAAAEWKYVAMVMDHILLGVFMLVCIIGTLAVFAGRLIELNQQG
T1 sequence (P07510 23-517): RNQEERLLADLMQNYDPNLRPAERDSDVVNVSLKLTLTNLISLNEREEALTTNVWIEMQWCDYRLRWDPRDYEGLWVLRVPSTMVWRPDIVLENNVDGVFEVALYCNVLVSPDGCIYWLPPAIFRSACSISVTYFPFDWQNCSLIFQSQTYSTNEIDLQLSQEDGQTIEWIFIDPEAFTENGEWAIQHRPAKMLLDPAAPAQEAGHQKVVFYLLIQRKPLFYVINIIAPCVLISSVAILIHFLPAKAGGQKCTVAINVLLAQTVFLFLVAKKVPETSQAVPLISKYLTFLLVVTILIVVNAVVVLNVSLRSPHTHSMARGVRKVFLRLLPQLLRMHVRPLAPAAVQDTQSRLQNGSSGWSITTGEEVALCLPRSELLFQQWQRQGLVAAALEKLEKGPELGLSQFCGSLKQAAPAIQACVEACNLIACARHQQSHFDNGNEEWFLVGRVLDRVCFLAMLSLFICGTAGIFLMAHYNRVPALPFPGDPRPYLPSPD
T1 sequence (Q07001 22-517): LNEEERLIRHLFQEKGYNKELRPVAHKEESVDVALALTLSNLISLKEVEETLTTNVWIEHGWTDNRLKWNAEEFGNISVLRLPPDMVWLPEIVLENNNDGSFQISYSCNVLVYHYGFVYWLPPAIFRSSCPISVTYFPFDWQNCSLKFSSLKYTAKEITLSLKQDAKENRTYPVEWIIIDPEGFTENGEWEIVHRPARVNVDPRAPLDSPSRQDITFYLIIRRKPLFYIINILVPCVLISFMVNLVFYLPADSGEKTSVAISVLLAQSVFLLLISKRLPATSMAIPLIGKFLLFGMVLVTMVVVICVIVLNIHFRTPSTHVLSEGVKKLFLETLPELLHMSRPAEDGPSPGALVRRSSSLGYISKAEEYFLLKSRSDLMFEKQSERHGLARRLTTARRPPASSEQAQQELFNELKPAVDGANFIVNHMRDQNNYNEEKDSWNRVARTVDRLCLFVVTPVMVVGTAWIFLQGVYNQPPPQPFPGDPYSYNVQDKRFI
T2 sequence (P09483 31-630): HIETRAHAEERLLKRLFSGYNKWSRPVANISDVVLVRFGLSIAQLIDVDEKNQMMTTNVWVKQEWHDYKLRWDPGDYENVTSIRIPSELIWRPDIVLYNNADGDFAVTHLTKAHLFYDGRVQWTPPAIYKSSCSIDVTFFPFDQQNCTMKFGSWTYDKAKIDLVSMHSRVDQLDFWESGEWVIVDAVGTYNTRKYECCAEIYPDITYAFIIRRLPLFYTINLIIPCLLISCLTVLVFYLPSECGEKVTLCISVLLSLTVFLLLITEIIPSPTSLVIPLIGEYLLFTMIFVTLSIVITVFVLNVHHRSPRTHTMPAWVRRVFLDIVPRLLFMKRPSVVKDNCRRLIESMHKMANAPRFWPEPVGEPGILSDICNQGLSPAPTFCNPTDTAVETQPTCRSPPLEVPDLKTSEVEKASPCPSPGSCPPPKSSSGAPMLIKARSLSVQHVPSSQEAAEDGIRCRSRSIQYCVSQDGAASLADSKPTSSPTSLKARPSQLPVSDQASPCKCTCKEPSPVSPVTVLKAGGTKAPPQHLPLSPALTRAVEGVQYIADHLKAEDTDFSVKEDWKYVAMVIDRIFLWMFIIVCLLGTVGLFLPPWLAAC
T2 sequence (P12390 25-500): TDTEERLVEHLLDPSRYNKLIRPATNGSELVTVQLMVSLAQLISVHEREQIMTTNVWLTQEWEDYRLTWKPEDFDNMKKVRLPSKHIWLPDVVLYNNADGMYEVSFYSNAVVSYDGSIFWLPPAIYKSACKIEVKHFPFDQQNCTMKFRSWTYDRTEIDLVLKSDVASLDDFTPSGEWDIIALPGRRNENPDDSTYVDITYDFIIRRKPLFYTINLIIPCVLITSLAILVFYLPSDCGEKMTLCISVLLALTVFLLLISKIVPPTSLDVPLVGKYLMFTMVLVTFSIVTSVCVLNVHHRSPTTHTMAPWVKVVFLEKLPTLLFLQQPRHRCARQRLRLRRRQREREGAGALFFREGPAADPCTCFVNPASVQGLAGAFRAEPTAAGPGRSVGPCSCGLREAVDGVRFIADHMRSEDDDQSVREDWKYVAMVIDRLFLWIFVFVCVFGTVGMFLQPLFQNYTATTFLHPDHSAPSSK

CNCC/C=C/c1ccc(C)nc1 [Sample No. 1, (E)-N-methyl-4[3-(6-methylpyridin)yl]-3-buten-1-amine monofumarate]
Ganglion Effect (Emax) (ganglionic receptors): 4 % nicotine | EC50 [1]: 10000 nM | Emax [1, 3]: 115%

CNCC/C=C/c1cncc(-c2ccccc2)c1 [Sample No. 3, (E)-N-Methyl-4-[3-(5-phenylpyridin)yl]-3-buten-1-amine]
Ganglion Effect (Emax) (ganglionic receptors): 0 % nicotine | EC50 [1]: > 100000 nM | Emax [1, 4]: > 160% | Muscle Effect (Emax) (muscle receptors): 8 % nicotine

COc1cncc(/C=C/CCN)c1 [Sample No. 4, (E)-4-[3-(5-methoxypyridin)yl]-3-buten-1-amine monofumarate]
Ganglion Effect (Emax) (ganglionic receptors): 0 % nicotine | EC50 [1]: 3800 nM

CNCC/C=C/c1cncc(N)c1 [Sample No. 5, (E)-N-methyl-4-[3-(5-aminopyridin)yl]-3-buten-1-amine]
Ganglion Effect (Emax) (ganglionic receptors): 4 % nicotine | EC50 [1]: 2000 nM | Emax [1, 4]: 85% | Muscle Effect (Emax) (muscle receptors): 4 % nicotine

CNCC/C=C/c1cncc(OCc2ccccc2)c1 [Sample No. 6, (E)-N-Methyl-4-[3-(5-benzyloxypyridin)yl]-3-buten-1-amine]
Ganglion Effect (Emax) (ganglionic receptors): 0 % nicotine | EC50 [1]: 4000 nM | Emax [1, 4]: 33% | Muscle Effect (Emax) (muscle receptors): 12 % nicotine

CNCC/C=C/c1cncc(Br)c1 [Sample No. 7, (E-N-methyl-4-[3-5-bromopyridin)yl]-3-buten-1-amine monofumarate]
Ganglion Effect (Emax) (ganglionic receptors): 11 % nicotine | EC50 [1]: 2400 nM | Emax [1, 4]: 107% | Emax (muscle receptors): 8% | Ki (α4β2 receptor subtypes): 79 nM

CNCC/C=C/c1cncc(OC)c1 [Sample No. 8, (E)-N-methyl-4-[3-(5-methoxypyridin)yl]-3-butene-1-amine]
Ganglion Effect (Emax) (ganglionic receptors): 0 % nicotine | EC50 [1]: 191 nM | Emax [1, 4]: 103% | Muscle Effect (Emax) (muscle receptors): 0 % nicotine | Ki (α4β2 receptor subtypes): 10 nM

CCOc1cncc(/C=C/CCNC)c1 [Sample No. 9, (E)-N-methyl-4-[3-(5-ethoxypyridin)yl]-3-butene-1-amine]
Ganglion Effect (Emax) (ganglionic receptors): 0 % nicotine | EC50 ([1]; dopamine release): 287 nM | Dopamine Release Emax ([1]; percentage of release obtained with (S)-(-)-nicotine concentration resulting in maximal effects): 124% | Muscle Effect (Emax) (muscle receptors): 0 % nicotine | Ki (α4β2 receptor subtypes): 9 nM

CNC(C)C/C=C/c1cccnc1 (stereo not shown) [Sample No. 10, (E)-N-methyl-5-(3-pyridinyl)-4-penten-2-amine]
Ganglion Effect (Emax) (ganglionic receptors): 6 % nicotine | EC50 [1]: 21400 nM | Emax [1, 4]: 182% | Muscle Effect (Emax) (muscle receptors): 4 % nicotine | Ki (α4β2 receptor subtypes): 82 nM

CNCC/C=C/c1cncnc1 [Sample No. 11, (E)-N-methyl-4-(5-pyrimidinyl)-3-buten-1-amine]
Ganglion Effect (Emax) (ganglionic receptors): 0 % nicotine | Emax (muscle receptors): 12%

CNCC/C=C\c1cccnc1 [Sample No. 12, (Z)-metanicotine monofumarate]
EC50 [1]: 8310 nM | Emax [1, 3]: 96%

NCC/C=C/c1cncc(Br)c1 [Sample No. 13, (E)-4-[3-(5-Bromopyridin)yl]-3-buten-1-amine Hemifumarate]
Ganglion Effect (Emax) (ganglionic receptors): 0 % nicotine | EC50 [1]: 49 nM | Emax [1, 4]: 29% | Emax (muscle receptors): 5% | Ki (α4β2 receptor subtypes): 707 nM

CNCC/C=C/c1cccnc1 [Sample No. 14, (E)-metanicotine monofumarate]
EC50 [1]: 1020 nM | Emax [1, 3]: 90%

CNCC/C=C/c1cncc(Oc2ccccc2)c1 [Sample No. 15, (E)-N-Methyl-4-[3-(5-phenoxypyridin)yl]-3-buten-1-amine]
Ganglion Effect (Emax) (ganglionic receptors): < 15 % nicotine | EC50 [1]: 114 nM | Emax [1, 4]: 14% | Muscle Effect (Emax) (muscle receptors): 5 % nicotine

CNCC/C=C/c1cncc(OC(C)C)c1 [Sample No. 16, (E)-N-Methyl-4-[3-(5-isopropoxypyridin)yl]-3-buten-1-amine]
Ganglion Effect (Emax) (ganglionic receptors): < 15 % nicotine | EC50 [1]: 51 nM | Emax [1, 4]: 57% | Muscle Effect (Emax) (muscle receptors): 8 % nicotine

CNCC/C=C/c1cncc(COC)c1 [Sample No. 17, (E)-N-Methyl-4-[3-(5-methoxymethylpyridin)yl]-3-buten-1-amine]
Ganglion Effect (Emax) (ganglionic receptors): 0 % nicotine | EC50 [1]: 16000 nM | Emax [1, 4]: 46% | Muscle Effect (Emax) (muscle receptors): 13 % nicotine

NCC/C=C/c1cccnc1.O=C(O)/C=C/C(=O)O.O=C(O)/C=C/C(=O)O [Sample No. 18, (E)-4-(3-pyridinyl)-3-buten-1-amine difumarate]
Ganglion Effect (Emax) (ganglionic receptors): 23 % nicotine | EC50 [1]: 5020 nM | Emax [1, 4]: 81% | Muscle Effect (Emax) (muscle receptors): 15 % nicotine

CCOc1cncc(/C=C/CCNC)c1 [Sample No. 19, (E)-N-Methyl-4-[3-(5-ethoxypyridin)yl]-3-buten-1-amine sesquifumarate]
Ganglion Effect (Emax) (ganglionic receptors): < 15 % nicotine | EC50 ([1]; dopamine release): 276 nM | Muscle Effect (Emax) (muscle receptors): 3 % nicotine

CN1CCC[C@H]1c1cccnc1 [Sample No. C-1, (S)-(-)-nicotine, reference compound]
Ganglion Effect (Emax) (ganglionic receptors): 100 % nicotine | Emax [1, 3]: 100% | affinity to bind to nicotinic acetylcholine receptor subtypes (in words) [2]: demonstrated affinity to bind to numerous nicotinic acetylcholine receptor subtypes including β2-subunits
